Patent publication US20240058328A1, “MASITINIB FOR THE TREATMENT OF ALZHEIMER'S DISEASE” (AB SCIENCE, priority 2020, published 2024)

Tested on: patients with Alzheimer's disease
Experiment: Phase 3 study AB09004: change from baseline in ADCS-ADL score
Format: in vivo, human
Parameters: key to δLSM (ADCS-ADL): LSM difference in ADCS-ADL change; positive = improvement
Conditions: for δLSM (ADCS-ADL) / ΔLSM (ADCS-ADL): 4.5 mg/kg/day; for δLSM (ADCS-ADL): week 24 from baseline; for ΔLSM (ADCS-ADL): vs placebo, week 24; for improved benefit relative to complementary subpopulation: ΔLSM (ADCS-ADL)
Description: An international, multicenter, randomized, double-blind, placebo-controlled phase 3 study was conducted with the objective to evaluate oral masitinib at a dose of 4.5 mg/kg/day as a treatment for Alzheimer's disease.
Eligible patients, aged at least 50 years, were diagnosed with dementia of Alzheimer's type according to Diagnostic and Statistical Manual of Mental Disorders (DSM)-IV criteria, and probable Alzheimer's disease according to NINCDS-ADRDA (National Institute of Neurological and Communicative Diseases and Stroke/Alzheimer's Disease and Related Disorders Association) criteria. […] Patients with any other cause of dementia not due to Alzheimer's disease were ineligible for the study.
Eligible patients were treated during 24 weeks with masitinib at a dose of 4.5 mg/kg/day (mg per kilo body weight per day) or with placebo. Treatment was administered as add-on therapy in patients who had been treated for a minimum of 6 months with a stable dose of cholinesterase inhibitors (donepezil, rivastigmine or galantamine) and/or memantine, with no changes foreseen in therapy throughout the study.
Primary analysis was based on the co-primary endpoints of: • Change from baseline in Alzheimer's Disease Cooperative Study Activities of Daily Living (ADCS-ADL) score. The ADCS-ADL assesses the competence of patients with Alzheimer's disease in basic and instrumental activities of daily living (ADLs). • Change from baseline in Alzheimer's Disease Assessment Scale-Cognitive Subscale (ADAS-Cog). The ADAS-Cog assesses cognition and memory.
Treatment effect (masitinib versus placebo) was assessed based on absolute change from baseline to week 24 by using an analysis of covariance model (ANCOVA linear model) with the following factors: treatment, baseline value, and stratification criteria of baseline MMSE score, age, ADCS-ADL total score, and ADAS-Cog total score.
For ADCS-ADL, the global score (i.e., the sum of 23 items rated by the caregiver) was used with a range from 0 to 78, wherein 78 implies full functioning with no impairment. Thus, a higher score signifies greater functional ability, while a lower score signifies greater (worse) impairment. Results are expressed as a least-squares means difference (δLSM) of absolute change in ADCS-ADL score from baseline; that is to say, the change over time in the ADCS-ADL score, or in other words the difference between the ADCS-ADL score at baseline (before treatment initiation) and the ADCS-ADL score after treatment with masitinib or with placebo. An increase in ADCS-ADL score with respect to baseline (i.e., a positive δLSM) indicates an improvement in the patient and therefore disease stability, whereas a decrease in ADCS-ADL score with respect to baseline (i.e., negative δLSM) indicates a worsening in the patient and therefore disease progression. Treatment-effect is reported as the difference between treatment-arms (ΔLSM) (calculated as δLSM[masitinib] minus δLSM[placebo]), with a positive value indicating a beneficial effect of treatment with masitinib as compared to treatment with placebo. In a scenario where both treatment-arms show worsening in activities of daily living (i.e., a negative δLSM), then a positive ΔLSM indicates a beneficial treatment effect for masitinib, i.e., the rate of decline in masitinib treated patients is slower than that of patients from the placebo-arm.
The comparison was carried out using the following information: • δLSM: least-squares means difference of absolute change in endpoint score at week 24 from baseline, either according to ADAS-Cog assessment or to ADCS-ADL assessment. • ΔLSM: Difference between treatment-arms (treatment-effect) calculated as δLSM[masitinib] minus δLSM[placebo]. • Δsub/Δoverall: Ratio of subpopulation's placebo-controlled treatment-effect (ΔLSM at W24 for masitinib 4.5 mg/kg/d parallel arm) versus overall study population's placebo-controlled treatment-effect (ΔLSM at W24 for masitinib 4.5 mg/kg/d parallel arm). […]

Cc1ccc(NC(=O)c2ccc(CN3CCN(C)CC3)cc2)cc1Nc1nc(-c2cccnc2)cs1 [masitinib, 4-(4-methylpiperazin-1-ylmethyl)-N-[4-methyl-3-(4-pyridin-3ylthiazol-2-ylamino)phenyl]benzamide]
δLSM (ADCS-ADL) (MMSE [12-20]): −0.4369 | ΔLSM (ADCS-ADL) (MMSE [25-21]): +2.7435 points | ΔLSM (ADCS-ADL) (MMSE [25-21], listed as M4.5, 4.5 mg/kg/day): 2.7435 points | δLSM (ADCS-ADL) (MMSE [25-21]): 3.5738 | ΔLSM (ADCS-ADL) (MMSE ≥13): 2.0496 points | δLSM (ADCS-ADL) (MMSE ≥13): 1.1204 | ΔLSM (ADCS-ADL) (MMSE ≥14): +2.4046 points | ΔLSM (ADCS-ADL) (MMSE ≥14, listed as M4.5, 4.5 mg/kg/day): 2.4046 points | δLSM (ADCS-ADL) (MMSE ≥14): 1.3505 | ΔLSM (ADCS-ADL) (MMSE ≥15): 2.2738 points | δLSM (ADCS-ADL) (MMSE ≥15): 1.3520 | ΔLSM (ADCS-ADL) (MMSE ≥16): 2.5566 points | δLSM (ADCS-ADL) (MMSE ≥16): 1.6088 | ΔLSM (ADCS-ADL) (MMSE ≥17): 2.2870 points | δLSM (ADCS-ADL) (MMSE ≥17): 1.0330 | ΔLSM (ADCS-ADL) (Overall Population): 1.8190 points | δLSM (ADCS-ADL) (Overall Population): 1.0107 | Δsub/Δoverall (ratio of ΔLSM (ADCS-ADL) at W24, Baseline ADCS-ADL >39 vs overall study population): 1.14 | Δsub/Δoverall (ratio of ΔLSM (ADCS-ADL) at W24, Baseline ADCS-ADL >47 vs overall study population): 1.19 | Δsub/Δoverall (ratio of ΔLSM (ADCS-ADL) at W24, Baseline ADCS-ADL >55 vs overall study population): 1.75 | Δsub/Δoverall (ratio of ΔLSM (ADCS-ADL) at W24, Baseline ADCS-ADL ≥32 vs overall study population): 1.09 | Δsub/Δoverall (ratio of ΔLSM (ADCS-ADL) at W24, Baseline ADCS-ADL ≥35 vs overall study population): 1.11 | Δsub/Δoverall (ratio of ΔLSM (ADCS-ADL) at W24, Baseline ADCS-ADL ≥38 vs overall study population): 1.28 | Δsub/Δoverall (ratio of ΔLSM (ADCS-ADL) at W24, Baseline ADCS-ADL ≥41 vs overall study population): 1.11 | Δsub/Δoverall (ratio of ΔLSM (ADCS-ADL) at W24, Baseline ADCS-ADL ≥50 vs overall study population): 1.78 | Δsub/Δoverall (ratio of ΔLSM (ADCS-ADL) at W24, MMSE [20-12] vs overall study population): 0.76 | Δsub/Δoverall (ratio of ΔLSM (ADCS-ADL) at W24, MMSE [25-21] vs overall study population): 1.51 | Δsub/Δoverall (ratio of ΔLSM (ADCS-ADL) at W24, MMSE ≥13 vs overall study population): 1.13 | Δsub/Δoverall (ratio of ΔLSM (ADCS-ADL) at W24, MMSE ≥14 vs overall study population): 1.32 | Δsub/Δoverall (ratio of ΔLSM (ADCS-ADL) at W24, MMSE ≥15 vs overall study population): 1.25 | Δsub/Δoverall (ratio of ΔLSM (ADCS-ADL) at W24, MMSE ≥16 vs overall study population): 1.41 | Δsub/Δoverall (ratio of ΔLSM (ADCS-ADL) at W24, MMSE ≥17 vs overall study population): 1.26 | Δsub/Δoverall (percentage improvement) (ΔLSM (ADCS-ADL) at W24, Baseline ADCS-ADL >39 vs overall study population): (14%) | Δsub/Δoverall (percentage improvement) (ΔLSM (ADCS-ADL) at W24, Baseline ADCS-ADL >47 vs overall study population): (19%) | Δsub/Δoverall (percentage improvement) (ΔLSM (ADCS-ADL) at W24, Baseline ADCS-ADL >55 vs overall study population): 75% | Δsub/Δoverall (percentage improvement) (ΔLSM (ADCS-ADL) at W24, Baseline ADCS-ADL >55 vs overall study population, listed as M4.5): (75%) | Δsub/Δoverall (percentage improvement) (ΔLSM (ADCS-ADL) at W24, Baseline ADCS-ADL ≥32 vs overall study population): (9%) | Δsub/Δoverall (percentage improvement) (ΔLSM (ADCS-ADL) at W24, Baseline ADCS-ADL ≥35 vs overall study population): (11%) | Δsub/Δoverall (percentage improvement) (ΔLSM (ADCS-ADL) at W24, Baseline ADCS-ADL ≥38 vs overall study population): (28%) | Δsub/Δoverall (percentage improvement) (ΔLSM (ADCS-ADL) at W24, Baseline ADCS-ADL ≥41 vs overall study population): (11%) | Δsub/Δoverall (percentage improvement) (ΔLSM (ADCS-ADL) at W24, Baseline ADCS-ADL ≥50 vs overall study population): 78% | Δsub/Δoverall (percentage improvement) (ΔLSM (ADCS-ADL) at W24, Baseline ADCS-ADL ≥50 vs overall study population, listed as M4.5): (78%) | Δsub/Δoverall (percentage improvement) (ΔLSM (ADCS-ADL) at W24, MMSE [20-12] vs overall study population): (−24%) | Δsub/Δoverall (percentage improvement) (ΔLSM (ADCS-ADL) at W24, MMSE [25-21] vs overall study population): 51% | Δsub/Δoverall (percentage improvement) (ΔLSM (ADCS-ADL) at W24, MMSE [25-21] vs overall study population, listed as M4.5): (51%) | Δsub/Δoverall (percentage improvement) (ΔLSM (ADCS-ADL) at W24, MMSE ≥13 vs overall study population): (13%) | Δsub/Δoverall (percentage improvement) (ΔLSM (ADCS-ADL) at W24, MMSE ≥14 vs overall study population): 32% | Δsub/Δoverall (percentage improvement) (ΔLSM (ADCS-ADL) at W24, MMSE ≥14 vs overall study population, listed as M4.5): (32%) | Δsub/Δoverall (percentage improvement) (ΔLSM (ADCS-ADL) at W24, MMSE ≥15 vs overall study population): (25%) | Δsub/Δoverall (percentage improvement) (ΔLSM (ADCS-ADL) at W24, MMSE ≥16 vs overall study population): (41%) | Δsub/Δoverall (percentage improvement) (ΔLSM (ADCS-ADL) at W24, MMSE ≥17 vs overall study population): (26%) | improved benefit relative to complementary subpopulation (baseline ADAS-Cog ≤25 relative to >25): 84% | improved benefit relative to complementary subpopulation (baseline ADCS-ADL >39 relative to ≤39): 191% | improved benefit relative to complementary subpopulation (baseline ADCS-ADL >55 relative to ≤55): about 600% | improved benefit relative to complementary subpopulation (baseline MMSE 25 to 21 relative to MMSE 20 to 12, printed as 'between 99% to 66%'): 99%
